Assay results taken from patent US5824668A, “Formulation for administration of steroid compounds” (priority 1996, dated 1998).
“Also recorded” adds a separate entry of the source.

What was measured:
genetically obese mice = conditions: cited from earlier work; for anti-obesity effect / development of obesity / weight reduction after obesity: supplied in the diet, diabetic genetically obese mice
[1] = system: genetically obese and diabetic mice; conditions: cited from earlier work; for effectiveness relative to DHEA in preventing development of diabetes: C57BL/KsJ-db/db diabetic mice; for blood sugar / effect on the pancreas (granulation of islet cells) / plasma insulin concentrations: Coleman 1984
[2] = system: severely diabetic mammals; conditions: oral; cited from earlier work
rats and mice = conditions: cited from earlier work
[3] = cited from earlier work; for conversion in serum: normal and obese subjects, unpublished data; for oxidation at C-3 position to form etiocholandione: oral or parenteral; for recovery in the urine: parenteral routes
female patients = conditions: cited from earlier work
[4] = Dissolution of 5β steroid in water or in hydroxypropyl-β-cyclodextrin solution (Examples I-VII); assay type: physicochemical
Protocol: 12 milligrams (mg) of Etiocholandione (Steraloids, Inc. New Hampshire) was stirred and shaken with 0.5 ml of water in a test tube.
A 50% solution of hydroxypropyl-β-cyclodextrin was prepared as follows. 5 grams of pyrogen free hydroxypropyl-β-cyclodextrin (sold under the trade name Encapsin, Amaizo, Inc., Hammond, Ind., USA) was weighed on an analytical scale and placed in a graduated cylinder. Water was added with shaking until the volume reached 10 ml.
0.5 ml of the 50% solution of hydroxypropyl-β-cyclodextrin was added to the 0.5 ml of water containing 12 mg of Etiocholandione with additional shaking.
The previous experiment was repeated using a 50% solution of hydroxypropyl-β-cyclodextrin prepared as in Example 1. 50 mg of Etiocholandione was weighed and placed in a test tube. 2 ml of the 50% solution of hydroxypropyl-β-cyclodextrin was added to the test tube with shaking.
4 grams of hydroxypropyl-β-cyclodextrin was dissolved in 7 ml of distilled water to a total volume of 10 ml. Each ml of stock solution contained 0.4 g of solution hydroxypropyl-β-cyclodextrin. 20 mg of 3-β-hydroxy androstan-17-one (β-etiocholanolone) was shaken with 1 ml of the freshly prepared stock solution.
The same experiment as in example III was performed except that 40 mg of β-etiocholanolone was added to the stock solution of hydroxypropyl-β-cyclodextrin.
The same experiment as in example III was performed except that 20 mg of Etiocholandione was added to the stock solution of hydroxypropyl-β-cyclodextrin.
The same experiment as in example V was performed except that 40 mg of Etiocholandione was added to the stock solution of hydroxypropyl-β-cyclodextrin.
The same experiment as in Example V was performed except 80 mg or 250 mg ED was added to the stock solution.

[5] = Optical density of ET and ED dissolved in hydroxypropyl-β-cyclodextrin solutions; assay type: physicochemical
Protocol: The optical density (OD) of the ET and ED dissolved in hydroxypropyl-β-cyclodextrin solutions was determined at 400 NM against a blank control containing water and set at an OD of 0.0.

obese subjects = conditions: oral, cited from earlier work
Prader-Willi Syndrome = conditions: cited from earlier work
[6] = cited from earlier work; for influence on stabilization of mitomycin-C: acidic aqueous media, pH ranges studied
[7] = cited from earlier work; for pyrogenic reaction: intramuscular injection
auto-immune diseases = conditions: cited from earlier work
aplastic anemia patients = conditions: cited from earlier work; for patients with hematologic responses lasting longer than six months: of 43 patients treated with either α- and/or β ET, im
[8] = dissolved solution in hydroxypropyl-β-cyclodextrin, 400 NM, against water blank

C[C@]12CC[C@H](O)CC1=CC[C@@H]1[C@@H]2CC[C@]2(C)C(=O)CC[C@@H]12 [DHEA, 3-β-hydroxy-androst-5-en-17-one]
rate of weight gain (genetically obese mice; genetically obese mice, variety of routes): decreased the rate of weight gain
development of diabetes ([1]; genetically obese and diabetic mice): markedly reduced the development of diabetes
glucose tolerance [2]: improved glucose tolerance
hyperglycemia [2]: restored hyperglycemia to normal levels
control of diabetes and obesity (rats and mice): effective in controlling diabetes and obesity
metabolism ([3]; humans): metabolized to testosterone (17-β-hydroxy-androst-4-en-3-one) and estradiol
acne (female patients): severe acne

C[C@]12CCC(=O)C[C@H]1CC[C@@H]1[C@@H]2CC[C@]2(C)C(=O)CC[C@@H]12 [ED]
dissolution in water ([4]; 12 mg in 0.5 ml of water, after 5 minutes): Appreciable quantities of compound remained out of solution
appearance of solution ([4]; 12 mg in 1 ml of 25% hydroxypropyl-β-cyclodextrin): A clear solution was obtained
time to complete dissolution ([4]; 20 mg in 1 ml stock solution (0.4 g/ml hydroxypropyl-β-cyclodextrin), room temperature, occasional shaking): ≤ 6 h
time to complete dissolution ([4]; 40 mg in 1 ml stock solution (0.4 g/ml hydroxypropyl-β-cyclodextrin)): ≤ 24 h
appearance of solution ([4]; 50 mg in 2 ml of 50% hydroxypropyl-β-cyclodextrin): clear solution with no accumulation of crystals
time to dissolution ([4]; 50 mg in 2 ml of 50% hydroxypropyl-β-cyclodextrin, with shaking): Within one minute
complete dissolution ([4]; 80 mg added to stock solution (0.4 g/ml hydroxypropyl-β-cyclodextrin)): In neither case did the ED completely dissolve
complete dissolution ([4]; 250 mg added to stock solution (0.4 g/ml hydroxypropyl-β-cyclodextrin)): In neither case did the ED completely dissolve
optical density (OD) [5, 8]: 0.12
optical density (OD) ([5]; hydroxypropyl-β-cyclodextrin solution containing 80 mg of ED, 499 NM): 1.2
mean fat loss of the initial body fat content (obese subjects; 10-week period): about 5%
weight and body fat loss vs placebo (obese subjects; 14 subjects): lost significantly more weight and body fat
fat loss (obese subjects; four grams per day): significant fat loss
mean weight loss (obese subjects; four grams per day): 2.8±5.5 kilograms
mean weight loss normalized to body fat (obese subjects; four grams per day): 0.5±0.91 kilograms per week per 100 kilograms of body fat
subjective or objective side effects (obese subjects): no significant subjective or objective side effects
serum levels of α ET after administering ED ([3]; in vivo): high levels of α ET can be achieved in the serum
conversion in serum [3]: quickly converted almost exclusively to α ET

C[C@]12CC[C@@H](O)C[C@@H]1CC[C@@H]1[C@@H]2CC[C@]2(C)C(=O)CC[C@@H]12 [androsterone, reference compound]
effectiveness relative to DHEA in preventing development of diabetes [1]: but not androsterone or epiandrosterone

C[C@]12CC[C@H](O)C[C@@H]1CC[C@@H]1[C@@H]2CC[C@]2(C)C(=O)CC[C@@H]12 [epiandrosterone, reference compound]
effectiveness relative to DHEA in preventing development of diabetes [1]: but not androsterone or epiandrosterone

C[C@]12CC[C@@H](O)C[C@H]1CC[C@@H]1[C@@H]2CC[C@]2(C)C(=O)CC[C@@H]12 [etiocholanolone]
weight change in treated individuals (Prader-Willi Syndrome): either weight loss or a decrease in the rate of weight gain

COC[C@H]1O[C@@H]2O[C@H]3[C@H](O)[C@@H](OC)[C@@H](O[C@H]4[C@H](O)[C@@H](OC)[C@@H](O[C@H]5[C@H](O)[C@@H](OC)[C@@H](O[C@H]6[C@H](O)[C@@H](OC)[C@@H](O[C@H]7[C@H](O)[C@@H](OC)[C@@H](O[C@H]8[C@H](O)[C@@H](OC)[C@@H](O[C@H]1[C@H](O)[C@H]2OC)O[C@@H]8COC)O[C@@H]7COC)O[C@@H]6COC)O[C@@H]5COC)O[C@@H]4COC)O[C@@H]3COC [heptakis-(2,6,-di-O-methyl)-β- cyclodextrin]
influence on stabilization of mitomycin-C [6]: no influence on stabilization of mitomycin-C pH degradation

C[C@]12C=CC(=O)C=C1CC[C@@H]1[C@@H]2[C@@H](O)C[C@@]2(C)[C@H]1CC[C@]2(O)C(=O)CO [prednisolone, reference compound]
suppression of local irritation ([7]; minimal doses of 10 mg, with β-ET): sufficient to suppress any local irritation

C[C@]12C=CC(=O)C=C1CC[C@@H]1[C@@H]2C(=O)C[C@@]2(C)[C@H]1CC[C@]2(O)C(=O)CO [prednisone]
side effects (auto-immune diseases; in vivo): fluid retention and dramatic loss of bone or osteoporosis
symptoms of auto-immune diseases (auto-immune diseases; ulcerative colitis, Chrone's disease, rheumatoid arthritis): effective in reducing the symptoms

C[C@]12CC[C@@H](O)C[C@H]1CC[C@@H]1[C@@H]2CC[C@]2(C)C(=O)CC[C@@H]12 [α ET]
anti-obesity effect (genetically obese mice): anti-obesity properties
development of obesity (genetically obese mice): can prevent and arrest the development of obesity
weight reduction after obesity (genetically obese mice): facilitate weight reduction after obesity
effectiveness relative to DHEA in preventing development of diabetes [1]: four times more effective than DHEA
blood sugar [1]: reduce blood sugar
effect on the pancreas (granulation of islet cells) [1]: protective effect on the pancreas
plasma insulin concentrations [1]: increased plasma insulin concentrations
pyrogenic reaction [7]: acute pyrogenic reactions; also recorded: pyrogenic reaction and notable patient discomfort
patients with hematologic responses lasting longer than six months (aplastic anemia patients): 17
oxidation at C3 position ([3]; IV, human subjects, isotopic ratio studies): rapidly oxidized and re-reduced
urinary excretion ([3]; normal individuals, endogenous): 3-5 mg per day
oxidation at C-3 position to form etiocholandione [3]: rapidly oxidized at the C-3 position
recovery in the urine [3]: almost exclusively α ET conjugates

OC[C@H]1O[C@@H]2O[C@H]3[C@H](O)[C@@H](O)[C@@H](O[C@H]4[C@H](O)[C@@H](O)[C@@H](O[C@H]5[C@H](O)[C@@H](O)[C@@H](O[C@H]6[C@H](O)[C@@H](O)[C@@H](O[C@H]7[C@H](O)[C@@H](O)[C@@H](O[C@H]1[C@H](O)[C@H]2O)O[C@@H]7CO)O[C@@H]6CO)O[C@@H]5CO)O[C@@H]4CO)O[C@@H]3CO [α-cyclodextrin]
influence on stabilization of mitomycin-C [6]: no influence on stabilization of mitomycin-C pH degradation

C[C@]12CC[C@H](O)C[C@H]1CC[C@@H]1[C@@H]2CC[C@]2(C)C(=O)CC[C@@H]12 [β ET, 3-β-hydroxy androstan-17-one]
optical density (OD) [5, 8]: 0.12
anti-obesity effect (genetically obese mice): anti-obesity properties
development of obesity (genetically obese mice): can prevent and arrest the development of obesity
weight reduction after obesity (genetically obese mice): facilitate weight reduction after obesity
effectiveness relative to DHEA in preventing development of diabetes [1]: four times more effective than DHEA
blood sugar [1]: reduce blood sugar
effect on the pancreas (granulation of islet cells) [1]: protective effect on the pancreas
plasma insulin concentrations [1]: increased plasma insulin concentrations
pyrogenic reaction [7]: little pyrogenic effect
patients with hematologic responses lasting longer than six months (aplastic anemia patients): 17
hematologic recovery in non-responders to α ET (aplastic anemia patients; treated with β-ET): three patients who did not respond to α ET had a hematologic recovery
conversion in serum [3]: quickly converted almost exclusively to α ET
oxidation at C-3 position to form etiocholandione [3]: rapidly oxidized at the C-3 position
recovery in the urine [3]: almost exclusively α ET conjugates

OC[C@H]1O[C@@H]2O[C@H]3[C@H](O)[C@@H](O)[C@@H](O[C@H]4[C@H](O)[C@@H](O)[C@@H](O[C@H]5[C@H](O)[C@@H](O)[C@@H](O[C@H]6[C@H](O)[C@@H](O)[C@@H](O[C@H]7[C@H](O)[C@@H](O)[C@@H](O[C@H]8[C@H](O)[C@@H](O)[C@@H](O[C@H]1[C@H](O)[C@H]2O)O[C@@H]8CO)O[C@@H]7CO)O[C@@H]6CO)O[C@@H]5CO)O[C@@H]4CO)O[C@@H]3CO [β-cyclodextrin]
influence on stabilization of mitomycin-C [6]: no influence on stabilization of mitomycin-C pH degradation

OC[C@H]1O[C@@H]2O[C@H]3[C@H](O)[C@@H](O)[C@@H](O[C@H]4[C@H](O)[C@@H](O)[C@@H](O[C@H]5[C@H](O)[C@@H](O)[C@@H](O[C@H]6[C@H](O)[C@@H](O)[C@@H](O[C@H]7[C@H](O)[C@@H](O)[C@@H](O[C@H]8[C@H](O)[C@@H](O)[C@@H](O[C@H]9[C@H](O)[C@@H](O)[C@@H](O[C@H]1[C@H](O)[C@H]2O)O[C@@H]9CO)O[C@@H]8CO)O[C@@H]7CO)O[C@@H]6CO)O[C@@H]5CO)O[C@@H]4CO)O[C@@H]3CO [γ-cyclodextrin]
stabilizing effect on mitomycin ([6]; acidic media at pH above 1): measurable stabilizing effect on mitomycin

dimethyl-β- cyclodextrin
influence on stabilization of mitomycin-C [6]: no influence on stabilization of mitomycin-C pH degradation
